In PubChem BioAssay AID179 (DTP/NCI, 2004):
Calls of active or inactive are those of the source.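 The calls were made as follows: active = compounds giving half or more protection of infected cells from virus-caused growth loss, again on retest; inactive = the rest.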

Test system: CEM cells HIV-1 protection, formazan growth assay
Test: NCI AIDS Antiviral Assay
Settings: for IC50: measured here: growth of uninfected CEM cells
How it was run: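 Screen of anti-HIV-1 activity in human CEM cells using a formazan-based growth measurement at five drug concentrations. Hits with 50% or greater protection were repeated, and confirmation required reproducible complete protection.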

Structure (SMILES) | EC50 | IC50 | outcome
O=Nc1cc(S(=O)(=O)O)c2ccccc2c1O | > 200 µM | > 200 µM | 
CN1C(CC(O)c2ccccc2)CCCC1CC(O)c1ccccc1 (stereo not drawn) | > 200 µM | > 200 µM | 
Cn1c(-c2csc(-c3ccc(Cl)cc3)n2)n[nH]c1=S | > 200 µM | > 200 µM | 
Cc1ccc(SC2C(=O)C3CC(OCc4ccccc4)C2(C)C3(C)C)cc1 (stereo not drawn) | > 200 µM | > 200 µM | 
CC(=O)NC(CCCNC(=O)OCc1ccccc1)C(=O)NCc1ccccc1 (stereo not drawn) | > 170 µM | > 170 µM | 
COc1cccc(NC(=O)N/C(=C/c2ccc(N(CCC#N)CCC#N)cc2)NC(=O)c2cc([N+](=O)[O-])ccc2Cl)c1 | > 12.3 µM | 11.5 µM | 
N=C1OC(CN2CCN(c3ccccc3)CC2)CN1C(=O)Nc1ccccc1 (stereo not drawn) | > 200 µM | > 200 µM | 
Cn1c(=O)oc2cc(C(=O)CN3CCN(Cc4ccc5c(c4)OCO5)CC3)c(Cl)cc21 | > 200 µM | 178 µM | 
OC1(c2ccccc2)c2ccccc2Oc2ccccc21 | > 200 µM | 17.4 µM | 
CN(C)c1ccc(/C=C/c2ccnc3ccc4ccccc4c23)cc1 | > 79.4 µM | > 79.4 µM | 
CCCCNC(=S)/N=C/c1c(O)cc(C)oc1=O | > 200 µM | > 200 µM | 
Clc1cc(OC23CC4CC(CC(C4)C2)C3)nc(Cl)n1 | > 100 µM | 45.7 µM | 
CC(=O)CSc1sc(C(C)=O)c(N)c1C#N | > 200 µM | > 200 µM | 
O=C(O)CSc1cc2c3ccccc3sc2c2ccccc12 | > 6.17 µM | > 6.17 µM | 
CC(=O)CCC1(c2ccccc2)OC(=O)C(C#N)=C1c1ccccc1 (stereo not drawn) |  |  | inactive
C[C@]1(CO)CCC[C@@]2(C)C1CC[C@H]1CC3C[C@]12CC[C@]3(C)O (stereo partly drawn) | > 23.4 µM | > 23.4 µM | 
Cc1ccc2c(c1)sc1nnc(Cl)n12 | > 200 µM | > 200 µM | 
C=C=C(C(=O)OC)S(=O)c1ccc([N+](=O)[O-])cc1[N+](=O)[O-] (stereo not drawn) |  |  | inactive
COc1ccc(C(C)(O)c2cc3ccccc3n2S(=O)(=O)c2ccccc2)cc1 (stereo not drawn) | > 200 µM | 16.2 µM | 
CC(=O)c1nc2ccccc2n1C(C)C(=O)c1ccccc1 (stereo not drawn) | > 200 µM | 11.2 µM | 
COC(=O)C(CC(=O)Nc1ccc(C)cc1)C(=O)C(=O)Nc1c(C(C)C)cccc1C(C)C (stereo not drawn) | > 79.4 µM | > 79.4 µM | 
CC1=C2C(=O)NN=C2CCN1c1ccc(Br)cc1 | > 200 µM | 34.7 µM | 

Structure (SMILES) | EC50 | IC50 | outcome
COc1ccc(/C=C2\N=C(N/N=C\C(O)C(O)C(O)C(O)CO)NC2=O)cc1 (stereo not drawn) | > 200 µM | 107 µM | 
C=COCCC(C(=O)OCC)C(=O)OCC | > 200 µM | > 200 µM | 
c1ccc([P+](Cc2cccc3c2Cc2ccccc2-3)(c2ccccc2)c2ccccc2)cc1 | > 200 µM | 0.891 µM | 
CC(=O)Nc1ccc2c(c1)Cc1cc(N(CCO)CCO)ccc1-2 | > 200 µM | 74.1 µM | 
COc1ccc(CNc2cnc3ccc(N)cc3n2)cc1 | > 129 µM | 77.6 µM | 
O=C1OCc2cc[n+]([O-])cc21 | > 1660 µM | > 1660 µM | 
Cc1ccc(S(=O)(=O)N(CC(=O)O)c2c[nH]c(C(=O)O)c2)cc1 | > 200 µM | > 200 µM | 
c1ccc(-c2nc(-c3ccccc3SSc3ccccc3-c3nc(-c4ccccc4)nn3-c3ccccc3)n(-c3ccccc3)n2)cc1 | > 100 µM | > 100 µM | 
CCOP(=O)(OCC)/C(C#N)=C/C=C/c1ccco1 | > 646 µM | 148 µM | 
Cc1ccc(-c2cc(=O)c(=O)[nH][nH]2)cc1 | > 200 µM | > 200 µM | 
CCc1cccc(C(C)CC)c1NC(=O)C(=O)Cc1nc2ccccc2o1 (stereo not drawn) | > 347 µM | > 347 µM | 
Cc1ccc2c(c1)CC1(Cc3c(C)cccc3C1=O)C2=O (stereo not drawn) | > 200 µM | > 200 µM | 
COC(=O)c1ccc(CSc2ccccc2C(=O)O)cc1 | > 603 µM | 427 µM | 
CC(C(O)c1ccccc1)N(C)/N=N/c1nc2c([nH]1)c(=O)n(C)c(=O)n2C (stereo not drawn) | > 200 µM | 110 µM | 
Cc1c(Cl)ccc2c1NC(=O)C2(O)C(C(=O)c1ccccc1)c1ccccc1 (stereo not drawn) | > 66.1 µM | > 66.1 µM | 
Cn1c(=O)cc(N=Nc2ccc(Cl)c(Cl)c2)[nH]c1=O | > 200 µM | 16.2 µM | 
CCC(C)C(NC(=O)c1ccccc1SC(=O)CCC[n+]1ccccc1)C(N)=O (stereo not drawn) | > 75.9 µM | 4.79 µM | 
Cc1c(O)c2ccc(Cl)cc2n(C)c1=O | > 200 µM | > 200 µM | 
COc1nc(N=[N+]=[N-])nc(-c2c(OC)ccc3ccccc23)n1 | > 200 µM | 47.9 µM | 
O=c1[nH]cnc2[nH]ncc12 | > 200 µM | > 200 µM | 
O=C1CCC2(c3ccc(F)cc3)Nc3ncncc3N12 (stereo not drawn) | > 347 µM | > 347 µM | 
[Cl-].[Cl-].[Pt+4].[S-]c1ncccn1.[S-]c1ncccn1 | > 100 µM | 0.355 µM | 

Structure (SMILES) | EC50 | IC50 | outcome
CC1CN(c2cc3c(cc2F)c(=O)c(C(=O)O)cn3-c2ccc(N3CCN(C)CC3)cn2)CC(C)N1 (stereo not drawn) | > 145 µM | 123 µM | 
NC(=O)N/N=C(\CC1OC(=O)c2ccccc21)c1ccco1 (stereo not drawn) | > 832 µM | > 832 µM | 
C=CCNC(=S)/N=C1\N=S(C)(=O)c2ccccc21 (stereo not drawn) | > 891 µM | > 891 µM | 
[N-]=[N+]=CC(=O)C1CCCN1C(=O)c1ccccc1 (stereo not drawn) | > 200 µM | > 200 µM | 
Cc1nc(N)c(N2CCN([N+](=O)[O-])CC2)c(=O)[nH]1 |  |  | inactive
C=CCNC(=S)NNC(=O)c1c(C)nc2sccn12 | > 851 µM | 813 µM | 
O=C(O)[C@H](CCC[C@H]1C(=O)O[C@H](c2ccccc2)[C@H](c2ccccc2)N1C(=O)OCc1ccccc1)N[C@@H](c1ccccc1)[C@H](O)c1ccccc1 | > 89.1 µM | 77.6 µM | 
c1ccc([P+](CC[P+](c2ccccc2)(c2ccccc2)c2ccccc2)(c2ccccc2)c2ccccc2)cc1 | > 200 µM | 6.17 µM | 
COc1cc2ccnc([C@@H](OC(=O)c3ccccc3)c3ccc(OC)c(OC)c3OC)c2cc1OC |  |  | inactive
COc1ccc(C(O)/C(=N/N)c2nc3ccc(Cl)cc3[nH]c2=O)cc1 (stereo not drawn) | > 263 µM | 251 µM | 
O=S(=O)(O)c1cccc(N=Nc2ccc(N=Nc3ccc(Nc4ccccc4)c4c(S(=O)(=O)O)cccc34)c3ccccc23)c1 | 155 µM | > 200 µM | 
Cc1ccc(C)c(NC(=O)/C(=N\N)C(c2cnc3ccc([N+](=O)[O-])cc3n2)[N+](=O)[O-])c1 (stereo not drawn) | > 589 µM | 219 µM | 
Cc1cccc(N(C(=O)Nc2ccc(Cl)c(Cl)c2)C2=NCC(C)S2)c1 (stereo not drawn) | > 200 µM | > 200 µM | 
CC1CCC(=O)C(C(O)CC2CC(=O)N(c3ccccc3)C(=O)C2)C1 (stereo not drawn) | > 200 µM | > 200 µM | 
Cc1cc2c(c(N)c1C)C(=O)c1ccccc1C2=O |  |  | inactive
CN1c2ccccc2Oc2ccc3ccccc3c21 | > 200 µM | 135 µM | 
CCCCCCCCCCCCCCCc1ccc(OCC(O)CO)cc1 (stereo not drawn) | > 19.1 µM | > 19.1 µM | 
OCCNCCN=C1CCC(=NCCNCCO)CC1 | > 200 µM | 32.4 µM | 
CC(C)(C)SSCC(N)C(=O)O (stereo not drawn) | > 200 µM | > 200 µM | 
CC(=O)OCC1OC(n2c(-c3ccc(N)cc3)cc(-c3ccco3)c(C#N)c2=O)C(OC(C)=O)C(OC(C)=O)C1OC(C)=O (stereo not drawn) | > 11.7 µM | > 11.7 µM | 
